Measured values as given in patent US11369618B2, “Compounds, compositions and methods for prevention and/or treatment of cancer” (THE TRUSTEES OF THE UNIVERSITY OF PENNSYLVANIA, priority 2016, dated 2022).
“Also recorded” adds a separate entry of the source.

Legend:
[1] = system: mouse and human melanoma cell lines (B16F10, WM46, WM51, WM3702); assay: proliferation assay of mouse and human melanoma cell lines in vitro; assay type: cell-based; conditions: estrogen 25 nM E2, G-1 100 nM, vs delivery vehicle
From the text: FIGS. 4A-4F illustrate the finding that GPER signaling slows proliferation and drives differentiation in mouse and human melanoma. FIG. 4A: 5 day proliferation assay of B16F10, WM46 (BRAF^V600E), WM51 (BRAF^V600E), and WM3702 (NRAS^Q61L) cells treated with estrogen (E2), * denotes significance by a two-tailed T-test, n=3 per group. FIG. 4B: 5 day melanin assay of B16F10, WM46 (BRAF^V600E), WM51 (BRAF^V600E), and WM3702 (NRAS^Q61L) cells treated with E2, * denotes significance by a two-tailed T-test, n=3 per group. FIG. 4C: 5 day proliferation assay of B16F10, WM46 (BRAF^V600E), WM51 (BRAF^V600E) and WM3702 (NRAS^Q61L) cells treated with GPER agonist (G-1), * denotes significance by a two-tailed T-test, n=3 per group. FIG. 4D: 5 day melanin assay of B16F10, WM46 (BRAF^V600E), WM51 (BRAF^V600E), and WM3702 (NRAS^Q61L) cells treated with G-1, * denotes significance by a two-tailed T-test, n=3 per group. FIG. 4E: 3 day proliferation assay of B16F10 cells treated with a dose response of G-1, * denotes significance One-way ANOVA with Tukey's multiple comparison test, n=5 per group. FIG. 4F: Western blot of B16F10 cells treated for 16 hours with a saturating dose response of G-1. […]
Tumor cell proliferation slowed in both mouse and human melanoma cells following treatment with estrogen or G-1, a specific GPER agonist. […] Cell proliferation and differentiation (melanin production) were measured.

[2] = system: Mouse (B16) and human (WM46) melanoma cell lines; assay: tumor formation in mice from melanoma cells pretreated in vitro; assay type: in vivo; conditions: melanoma cells pretreated in vitro, equal numbers injected into mice
Method: FIG. 11A: Long-term melanin assay in which normal human melanocytes were transiently treated with progesterone (P4), or estrogen (E2). Subsets of these groups (Red) were treated with an additional transient pulse of P4 at Day 27. Error bars equal the standard deviation of the samples. FIG. 11B: Western blot of melanocyte differentiation markers after a transient, 4-day treatment with either vehicle or estrogen, followed by an 8 day withdraw period. FIG. 11C: Experimental timeline of estrogen or GPER agonist (G-1) pre-treatment of mouse and human melanoma cells, n=5 per group. FIG. 11D: Relative tumor weights of mouse and human melanomas pre-treated with estrogen, * denotes significance by the Mann-Whitney test. FIG. 11E: Relative tumor weights of mouse and human melanomas pre-treated with G-1, * denotes significance by the Mann-Whitney test.
Mouse (B16) and human (WM46) cell lines were pretreated with estrogen, G-1, or vehicle in vitro for one week then injected in equal numbers in to the left (vehicle-treated) or right (E2-treated) flank of mice, inducing tumor formation (N=5 mice per group) (FIG. 5). 14-16 days later, mice were imaged and tumors were harvested and weighed.
To test whether transient GPER signaling induces a persistent differentiation state in melanoma cells that affects subsequent tumor growth in vivo, melanoma cells were treated with estrogen, G-1, or vehicle in vitro, and subsequently injected equal numbers of treated cells into host mice (FIG. 11C).

[3] = system: pRB, c-myc and GPER in WM46 melanoma cells; assay: Western blot of WM46 melanoma cells treated with increasing doses of G-1; assay type: cell-based, human; conditions: WM46, increasing concentrations
[4] = system: Melanoma cells engineered to maintain c-Myc protein; assay: c-Myc-transduced WM46 melanoma cells treated with G-1; assay type: cell-based, human; conditions: c-Myc-transduced WM46, 16 hours
Method: FIG. 12 illustrates the finding that GPER signaling results in loss of c-Myc in melanoma. Panels A-C: Western blots of heMel (Panel A), WM46 (Panel B), and B16F10 (Panel C) melanoma transiently treated with E2 for 3 days, followed by 4 day withdraw. Panel D: Western blot of WM46 cells treated with a specific GPER agonist (G-1) for 16 hours. Panel E: Western blot of luciferase- or c-Myc-transduced WM46 cells treated with G-1 for 16 hours. Panel F: Western blot of WM46 cells treated with G-1 across a time course. Panel G: Western blot of WM46 cells treated with G-1, 100 μM PKA inhibitor Rp-8-Br-cAMPS (PKAi), or both for 1 hour. Panel H: Western blot of WM46 cells treated with G-1, […] proteasome inhibitor (MG132), or both for 1 hour. Panel I: Western blot of WM46 cells treated with 10 μg/ml cyclohexamide (CHX) with and without G-1.
Furthermore, GPER signaling induced a relative growth arrest, associated with hypophosphorylation of Rb in both mouse and human melanoma cells (FIG. 12, Panel D).

[5] = system: murine B16F10 melanoma cells; assay: G-1-pretreated B16F10 cells injected into syngeneic C57BL/6 mice, then αPD-1 antibody or isotype control; assay type: in vivo, mouse; conditions: B16F10 cells pretreated in vitro
From the text: FIG. 13D: Experimental timeline of vehicle or G-1 pre-treatment of B16F10 cells followed by treatment with either αPD-1 antibody or isotype antibody control (2A3), n=5 per group. FIG. 13E: Tumor volumes of treatment groups at Day 14, * denotes significance One-way ANOVA with Tukey's multiple comparison test. FIG. 13F: Survival curve of mice with tumors pre-treated with vehicle or G-1, followed by isotype antibody control (2A3) or αPD-1 antibody.
To determine whether tumor cell intrinsic GPER signaling influences melanoma vulnerability to immune checkpoint therapy, studies were performed, based on the observation that GPER-driven differentiation is long lasting. G-1 was used to activate GPER and drive differentiation in murine B16F10 melanoma cells in vitro (FIG. 13D). Then, equal numbers of vehicle or G-1-treated tumor cells were injected into syngeneic C57BL/6 mice and the animals were treated with either αPD-1 antibody or isotype antibody control.

PDAC tumors = assay: PDAC tumor bearing mice treated with G-1; assay type: in vivo, mouse; conditions: tumors grown 18 days, dosing on 3 consecutive days, follow-up 4 days; 2 independent PDAC cell lines
LLC1 tumors = assay: LLC1 tumor bearing mice treated with subcutaneous G-1, αPD-1 antibody, or both; assay type: in vivo, mouse
Method: FIGS. 18A-18G illustrate the finding that GPER signaling reduces NSCLC cell proliferation in vitro and in vivo and has combinatorial effects with αPD-1 immunotherapy. FIG. 18A: Western blot for pCREB of LLC1 cells treated with 500 nM G-1 for 30 minutes. FIG. 18B: Proliferation assay of LLC1 treated with 500 nM G-1 for 6 days. FIG. 18C: Western blot for c-Myc of LLC1 cells treated with 500 nM G-1 for 6 days. FIG. 18D: Western blot for c-Myc of LLC1 cells treated with 500 nM G-1 over a time-course. […] FIG. 18F: Tumor volumes over time of LLC1 tumor bearing mice treated with vehicle or G-1, as well as αPD-1 antibody or isotype antibody control (2A3). FIG. 18G: Survival curve of mice treated with vehicle or G-1, as well as αPD-1 antibody or isotype antibody control (2A3).
To test whether G-1 had activity in vivo and synergizes with PD-1 immunotherapy, LLC1 tumors were grown in mice that were treated with subcutaneous G-1, αPD-1 antibody, or both, and survival compared to matched mice treated with vehicle and isotype antibody controls.

[6] = system: c-Myc and pRB in syngeneic pancreatic ductal adenocarcinoma (PDAC) cell lines; assay: Western blot of PDAC cell lines treated with G-1; conditions: 500 nM, 1 hour
Method: FIG. 17A: Western blot of c-Myc in several PDAC cell lines treated with 500 nM G-1 for 1 hour.
Using a newly available set of syngeneic pancreatic ductal adenocarcinoma (PDAC) cell lines, the effects of GPER activation on the levels of c-Myc protein were examined.

CC(=O)c1ccc2c(c1)[C@@H]1C=CC[C@@H]1[C@H](c1cc3c(cc1Br)OCO3)N2 (relative stereo) [Compound G-1, rel-1-[4-(6-bromo-1,3-benzodioxol-5-yl)-3aR,4S,5,9bS-tetrahydro-3H-cyclopenta[c]quinolin-8-yl]-ethanone]
melanoma cell proliferation [1]: slowed melanoma cell proliferation | tumor growth / tumor size from pretreated cells [2]: formed significantly smaller tumors; also recorded: markedly reduced subsequent tumor size | GPER expression [3]: elevation | c-myc levels [3]: reduction | pRB levels [3]: reduction | response of cells engineered to maintain c-Myc protein [4]: resistant | subsequent tumor growth [5]: inhibited subsequent tumor growth | survival [5]: extended survival compared to controls | tumor size (tumor weights) (PDAC tumors): significantly smaller | survival (LLC1 tumors): did not alter survival significantly | tumor growth (LLC1 tumors): slowed tumor growth initially | c-Myc [6]: reduced | pRB [6]: reduced
